Assay results as given in ChEMBL document CHEMBL3046161, “Synthesis of potential antitubercular and antimicrobial s-triazine-based scaffolds via Suzuki cross-coupling reaction” (2013).
Converted amounts (≈) assume the structure as drawn.

Assays:
Format in all cases: functional
[1] = system: Escherichia coli; assay: Antibacterial activity against Escherichia coli MTCC 739 assessed as growth inhibition after 24 hr by agar streak dilution method; settings: MTCC 739, 24 h
[2] = system: Klebsiella pneumoniae; assay: Antibacterial activity against Klebsiella pneumoniae MTCC 109 assessed as growth inhibition after 24 hr by agar streak dilution method; settings: MTCC 109, 24 h
[3] = system: Staphylococcus aureus; assay: Antibacterial activity against Staphylococcus aureus MTCC 96 assessed as growth inhibition at 3.12 to 50 ug/mL after 24 hr by agar disk diffusion method
[4] = system: Aspergillus clavatus; assay: Antifungal activity against Aspergillus clavatus MTCC 1323 assessed as growth inhibition after 48 hr by agar streak dilution method; settings: MTCC 1323, 48 h
[5] = system: Shigella flexneri; assay: Antibacterial activity against Shigella flexneri MTCC 1457 assessed as growth inhibition at 3.12 to 50 ug/mL after 24 hr by agar disk diffusion method
[6] = system: Aspergillus niger; assay: Antifungal activity against Aspergillus niger MTCC 282 assessed as growth inhibition after 48 hr by agar streak dilution method; settings: MTCC 282, 48 h
[7] = system: Aspergillus fumigatus; assay: Antifungal activity against Aspergillus fumigatus MTCC 343 assessed as growth inhibition at 3.12 to 50 ug/mL after 24 hr by agar disk diffusion method
[8] = system: Pseudomonas aeruginosa; assay: Antibacterial activity against Pseudomonas aeruginosa MTCC 741 assessed as growth inhibition at 3.12 to 50 ug/mL after 24 hr by agar disk diffusion method
[9] = system: Mycobacterium tuberculosis; assay: Antimycobacterial activity against Mycobacterium tuberculosis H37Rv assessed as growth inhibition at MIC after 12 to 28 days by Lowenstein and Jensen agar dilution method
[10] = system: Aspergillus fumigatus; assay: Antifungal activity against Aspergillus fumigatus MTCC 343 assessed as growth inhibition after 48 hr by agar streak dilution method; settings: MTCC 343, 48 h
[11] = system: Candida albicans; assay: Antifungal activity against Candida albicans MTCC 183 assessed as growth inhibition after 48 hr by agar streak dilution method; settings: MTCC 183, 48 h
[12] = system: Proteus vulgaris; assay: Antibacterial activity against Proteus vulgaris MTCC 1771 assessed as growth inhibition at 3.12 to 50 ug/mL after 24 hr by agar disk diffusion method
[13] = system: Pseudomonas aeruginosa; assay: Antibacterial activity against Pseudomonas aeruginosa MTCC 741 assessed as growth inhibition after 24 hr by agar streak dilution method; settings: MTCC 741, 24 h
[14] = system: Bacillus cereus; assay: Antibacterial activity against Bacillus cereus MTCC 430 assessed as growth inhibition after 24 hr by agar streak dilution method; settings: MTCC 430, 24 h
[15] = system: Mycobacterium tuberculosis; assay: Antimycobacterial activity against Mycobacterium tuberculosis H37Rv assessed as growth inhibition measured within 10 days by BACTEC MGIT method; settings: 240 h
[16] = system: Salmonella typhi; assay: Antibacterial activity against Salmonella enterica subsp. enterica serovar Typhi MTCC 733 assessed as growth inhibition after 24 hr by agar streak dilution method; settings: MTCC 733, 24 h
[17] = system: Salmonella typhi; assay: Antibacterial activity against Salmonella enterica subsp. enterica serovar Typhi MTCC 733 assessed as growth inhibition at 3.12 to 50 ug/mL after 24 hr by agar disk diffusion method
[18] = system: Candida albicans; assay: Antifungal activity against Candida albicans MTCC 183 assessed as growth inhibition at 3.12 to 50 ug/mL after 24 hr by agar disk diffusion method
[19] = system: Mycobacterium tuberculosis; assay: Antimycobacterial activity against Mycobacterium tuberculosis H37Rv assessed as growth inhibition after 12 to 28 days by Lowenstein and Jensen agar dilution method
[20] = system: Proteus vulgaris; assay: Antibacterial activity against Proteus vulgaris MTCC 1771 assessed as growth inhibition after 24 hr by agar streak dilution method; settings: MTCC 1771, 24 h
[21] = system: Bacillus cereus; assay: Antibacterial activity against Bacillus cereus MTCC 430 assessed as growth inhibition at 3.12 to 50 ug/mL after 24 hr by agar disk diffusion method
[22] = system: Escherichia coli; assay: Antibacterial activity against Escherichia coli MTCC 739 assessed as growth inhibition at 3.12 to 50 ug/mL after 24 hr by agar disk diffusion method
[23] = system: Shigella flexneri; assay: Antibacterial activity against Shigella flexneri MTCC 1457 assessed as growth inhibition after 24 hr by agar streak dilution method; settings: MTCC 1457, 24 h
[24] = system: Aspergillus niger; assay: Antifungal activity against Aspergillus niger MTCC 282 assessed as growth inhibition at 3.12 to 50 ug/mL after 24 hr by agar disk diffusion method
[25] = system: Staphylococcus aureus; assay: Antibacterial activity against Staphylococcus aureus MTCC 96 assessed as growth inhibition after 24 hr by agar streak dilution method; settings: MTCC 96, 24 h
[26] = system: Klebsiella pneumoniae; assay: Antibacterial activity against Klebsiella pneumoniae MTCC 109 assessed as growth inhibition at 3.12 to 50 ug/mL after 24 hr by agar disk diffusion method
[27] = system: Aspergillus clavatus; assay: Antifungal activity against Aspergillus clavatus MTCC 1323 assessed as growth inhibition at 3.12 to 50 ug/mL after 24 hr by agar disk diffusion method
[28] = system: Mycobacterium tuberculosis; assay: Antimycobacterial activity against Mycobacterium tuberculosis H37Rv assessed as growth inhibition at MIC measured within 10 days by BACTEC MGIT method

Cc1ccc2nc(NC(=O)CNc3ccc(-c4nc(N5CC(C)CC(C)C5)nc(N5CC(C)CC(C)C5)n4)cc3)sc2c1 (configuration not stated)
MIC [1]: 50 mg/L (≈ 83.5 µM) | MIC [2]: 50 mg/L (≈ 83.5 µM) | inhibition zone (IZ) [3]: 15 mm | MIC [4]: > 50 mg/L | inhibition zone (IZ) [5]: 12 mm | MIC [6]: 50 mg/L (≈ 83.5 µM) | inhibition zone (IZ) [7]: <10 mm | inhibition zone (IZ) [8]: 15 mm | growth inhibition (GI) [9]: 97% | MIC [10]: > 50 mg/L | MIC [11]: 50 mg/L (≈ 83.5 µM) | inhibition zone (IZ) [12]: 20 mm | MIC [13]: 50 mg/L (≈ 83.5 µM) | MIC [14]: 50 mg/L (≈ 83.5 µM) | MIC [15]: > 6.25 mg/L | MIC [16]: 50 mg/L (≈ 83.5 µM) | inhibition zone (IZ) [17]: <10 mm | inhibition zone (IZ) [18]: 13 mm | MIC [19]: 250 mg/L (≈ 417 µM) | MIC [20]: 50 mg/L (≈ 83.5 µM) | inhibition zone (IZ) [21]: 19 mm | inhibition zone (IZ) [22]: 16 mm | MIC [23]: 50 mg/L (≈ 83.5 µM) | inhibition zone (IZ) [24]: <10 mm | MIC [25]: 50 mg/L (≈ 83.5 µM) | inhibition zone (IZ) [26]: 16 mm | inhibition zone (IZ) [27]: <10 mm

CC1CC(C)CN(c2nc(-c3ccc(NCC(=O)Nc4nc5ccc(Br)cc5s4)cc3)nc(N3CC(C)CC(C)C3)n2)C1 (configuration not stated)
MIC [1]: 12.5 mg/L (≈ 18.8 µM) | MIC [2]: 50 mg/L (≈ 75.3 µM) | inhibition zone (IZ) [3]: 25 mm | MIC [4]: 50 mg/L (≈ 75.3 µM) | inhibition zone (IZ) [5]: 25 mm | MIC [6]: 50 mg/L (≈ 75.3 µM) | inhibition zone (IZ) [7]: 19 mm | inhibition zone (IZ) [8]: 25 mm | growth inhibition (GI) [9]: 99% | MIC [10]: 50 mg/L (≈ 75.3 µM) | MIC [11]: 50 mg/L (≈ 75.3 µM) | inhibition zone (IZ) [12]: 23 mm | MIC [13]: 25 mg/L (≈ 37.7 µM) | MIC [14]: 6.25 mg/L (≈ 9.42 µM) | MIC [15]: > 6.25 mg/L | MIC [16]: 6.25 mg/L (≈ 9.42 µM) | inhibition zone (IZ) [17]: 24 mm | inhibition zone (IZ) [18]: 18 mm | MIC [19]: 12.5 mg/L (≈ 18.8 µM) | MIC [20]: 25 mg/L (≈ 37.7 µM) | inhibition zone (IZ) [21]: 26 mm | inhibition zone (IZ) [22]: 23 mm | MIC [23]: 12.5 mg/L (≈ 18.8 µM) | inhibition zone (IZ) [24]: 19 mm | MIC [25]: 1.56 mg/L (≈ 2.35 µM) | inhibition zone (IZ) [26]: 11 mm | inhibition zone (IZ) [27]: 26 mm

COc1ccc2nc(NC(=O)CNc3ccc(-c4nc(N5CC(C)CC(C)C5)nc(N5CC(C)CC(C)C5)n4)cc3)sc2c1 (configuration not stated)
MIC [1]: 25 mg/L (≈ 40.7 µM) | MIC [2]: 50 mg/L (≈ 81.3 µM) | inhibition zone (IZ) [3]: 26 mm | MIC [4]: 50 mg/L (≈ 81.3 µM) | inhibition zone (IZ) [5]: 25 mm | MIC [6]: 25 mg/L (≈ 40.7 µM) | inhibition zone (IZ) [7]: <10 mm | inhibition zone (IZ) [8]: 20 mm | growth inhibition (GI) [9]: 98% | MIC [10]: > 50 mg/L | MIC [11]: 12.5 mg/L (≈ 20.3 µM) | inhibition zone (IZ) [12]: 27 mm | MIC [13]: 50 mg/L (≈ 81.3 µM) | MIC [14]: 12.5 mg/L (≈ 20.3 µM) | MIC [15]: > 6.25 mg/L | MIC [16]: 50 mg/L (≈ 81.3 µM) | inhibition zone (IZ) [17]: 20 mm | inhibition zone (IZ) [18]: 25 mm | MIC [19]: 12.5 mg/L (≈ 20.3 µM) | MIC [20]: 6.25 mg/L (≈ 10.2 µM) | inhibition zone (IZ) [21]: 25 mm | inhibition zone (IZ) [22]: 20 mm | MIC [23]: 12.5 mg/L (≈ 20.3 µM) | inhibition zone (IZ) [24]: 19 mm | MIC [25]: 1.56 mg/L (≈ 2.54 µM) | inhibition zone (IZ) [26]: 23 mm | inhibition zone (IZ) [27]: 23 mm

NC(=O)c1cnccn1 [PYRAZINAMIDE]
growth inhibition (GI) [28]: 99% | MIC [15]: 6.25 mg/L (≈ 50.8 µM)

CC1CC(C)CN(c2nc(-c3ccc(NCC(=O)Nc4ccc(Cl)cc4)cc3)nc(N3CC(C)CC(C)C3)n2)C1 (configuration not stated)
MIC [1]: 50 mg/L (≈ 88.9 µM) | MIC [2]: 50 mg/L (≈ 88.9 µM) | inhibition zone (IZ) [3]: 18 mm | MIC [4]: > 50 mg/L | inhibition zone (IZ) [5]: 24 mm | MIC [6]: 50 mg/L (≈ 88.9 µM) | inhibition zone (IZ) [7]: 14 mm | inhibition zone (IZ) [8]: 26 mm | growth inhibition (GI) [9]: 98% | MIC [10]: 50 mg/L (≈ 88.9 µM) | MIC [11]: > 50 mg/L | inhibition zone (IZ) [12]: 21 mm | MIC [13]: 25 mg/L (≈ 44.5 µM) | MIC [14]: 50 mg/L (≈ 88.9 µM) | MIC [15]: > 6.25 mg/L | MIC [16]: 50 mg/L (≈ 88.9 µM) | inhibition zone (IZ) [17]: 18 mm | inhibition zone (IZ) [18]: <10 mm | MIC [19]: 25 mg/L (≈ 44.5 µM) | MIC [20]: 50 mg/L (≈ 88.9 µM) | inhibition zone (IZ) [21]: 13 mm | inhibition zone (IZ) [22]: 12 mm | MIC [23]: 12.5 mg/L (≈ 22.2 µM) | inhibition zone (IZ) [24]: <10 mm | MIC [25]: 25 mg/L (≈ 44.5 µM) | inhibition zone (IZ) [26]: 21 mm | inhibition zone (IZ) [27]: <10 mm

CC1CC(C)CN(c2nc(-c3ccc(NCC(=O)Nc4nc5ccc(C#N)cc5s4)cc3)nc(N3CC(C)CC(C)C3)n2)C1 (configuration not stated)
MIC [1]: 6.25 mg/L (≈ 10.2 µM) | MIC [2]: 25 mg/L (≈ 41 µM) | inhibition zone (IZ) [3]: 24 mm | MIC [4]: 50 mg/L (≈ 82 µM) | inhibition zone (IZ) [5]: 22 mm | MIC [6]: 25 mg/L (≈ 41 µM) | inhibition zone (IZ) [7]: 22 mm | inhibition zone (IZ) [8]: 18 mm | growth inhibition (GI) [9]: 95% | MIC [10]: 50 mg/L (≈ 82 µM) | MIC [11]: > 50 mg/L | inhibition zone (IZ) [12]: 22 mm | MIC [13]: 50 mg/L (≈ 82 µM) | MIC [14]: 50 mg/L (≈ 82 µM) | MIC [15]: > 6.25 mg/L | MIC [16]: 50 mg/L (≈ 82 µM) | inhibition zone (IZ) [17]: 18 mm | inhibition zone (IZ) [18]: <10 mm | MIC [19]: 100 mg/L (≈ 164 µM) | MIC [20]: 25 mg/L (≈ 41 µM) | inhibition zone (IZ) [21]: 22 mm | inhibition zone (IZ) [22]: 25 mm | MIC [23]: 50 mg/L (≈ 82 µM) | inhibition zone (IZ) [24]: 19 mm | MIC [25]: 6.25 mg/L (≈ 10.2 µM) | inhibition zone (IZ) [26]: 27 mm | inhibition zone (IZ) [27]: 16 mm
